# Measured values taken from PMC10458253, “Unraveling the In Vitro Toxicity Profile of Psychedelic 2C Phenethylamines and Their N-Benzylphenethylamine (NBOMe) Analogues” (Pharmaceuticals, 2023).
# What was measured:
# [1] = system: differentiated SH-SY5Y cells; assay: Intracellular total glutathione (DTNB-GSH recycling assay); format: cell-based; settings: 24 h
# Method: Total GSH was quantified through the DTNB-GSH recycling assay. Briefly, GSH is oxidized by 5,5′-dithiobis (2-nitrobenzoic acid) (DTNB) producing 5-thio-2-nitrobenzoic acid (TNB) and a glutathione adduct of GSH (GS-TNB). In the presence of NADPH, GS-TNB is reduced by glutathione reductase to 2GSH (recycled). The GSH concentration in the samples is thus proportional to TNB formation, which is measurable at 415 nm.
# Intracellular total glutathione (GSH) was measured through the DTNB-GSH recycling assay. […]
# The acidic samples and standards (GSH standards prepared in 5% HClO4) were neutralized with ice-cold 0.76 M KHCO3 (1:1) and centrifuged (13,000× g, 10 min at 4 °C). Subsequently, 100 µL of the supernatants were transferred to a 96-well plate, followed by the addition of 65 µL of an extemporaneous reagent solution (3.96 mM DTNB and 0.68 mM NADPH prepared in a 7.5 pH phosphate buffer: 71.5 mM Na2HPO4, 71.5 mM NaH2PO4, and 0.63 mM EDTA) and the plates were incubated for 15 min in a multi-well plate reader (PowerWaveX BioTek Instruments, Winooski, VT, USA) at 30 °C. At the end of the incubation period, 40 µL of a 10 U/mL glutathione reductase (prepared in phosphate buffer) solution was added and the absorbance was then measured, for 3 min, at 415 nm, in kinetic mode to follow the TNB formation. […]
# [2] = system: differentiated SH-SY5Y cells; assay: Mitochondrial membrane potential (JC-1 dye); format: cell-based; settings: 24 h, 0–500 µM, vs control
# Method: Mitochondrial transmembrane potential (Δѱm) was determined using the JC-1 dye, which can selectively enter the mitochondria and reversibly change the dye’s fluorescent properties depending on the Δѱm. At high Δѱm conditions—representative of healthy cells—JC-1 forms J-aggregates generating red fluorescence. At low Δѱm conditions—representative of unhealthy or apoptotic cells—JC-1 is predominantly a monomer generating green fluorescence.
# The mitochondrial membrane potential was evaluated by using the JC-1 probe. SH-SY5Y cells were seeded and differentiated in 48-well plates and, 6 days after seeding, the cells were exposed to the six drugs (0–500 µM) for 24 h, at 37 °C, in a 5% CO2–95% air atmosphere. Subsequently, the medium was removed, and the cells were incubated with 20 µM JC-1 for 30 min, protected from light, at 37 °C, in a 5% CO2–95% air atmosphere. At the end of the incubation period, the cells were centrifuged (300× g, 5 min at room temperature) and washed (warm HBSS with calcium and magnesium) twice. The fluorescence was then measured in a multi-well plate reader: at 535 nm excitation and 595 nm emission wavelengths for J-aggregates; and at 485 nm excitation and 535 nm emission wavelengths for JC-1 monomers (PowerWaveX BioTek Instruments, USA). […] The results were calculated as red/green fluorescence intensity ratios and expressed as percentages of control cells. […]
Compound,total GSH intracellular levels ([1]; 250 μM),JC-1 red/green ratio (mitochondrial membrane potential) [2],total GSH intracellular levels ([1]; 10 μM)
"COc1cc(CCN)c(OC)cc1Br [2C-B, 4-Bromo-2,5-dimethoxy-β-phenethylamine]",no significant alterations,,
"COc1cc(CCNCc2ccccc2OC)c(OC)cc1Br [25B-NBOMe, 4-Bromo-2,5-dimethoxy-N-(2-methoxybenzyl)-β-phenethylamine]",,the most operative drug in inducing mitochondrial membrane depolarization,drastically reduced the total GSH levels
